Assay results taken from US12697330B2, “Therapeutic methods using vadadustat” (Akebia Therapeutics, Inc., priority 2021, dated 2026).

Test system: erythropoietin (EPO)
Experiment: Phase 2 study, Main Study: pharmacodynamics, Baseline-Unadjusted serum EPO concentration
Assay type: in vivo, human
Experimental: PK/PD Endpoints. An exposure-response analysis of vadadustat and PD measures were conducted as deemed appropriate. The PK parameters included (but were not limited to) the following: area under concentration-time curve from dosing to last measurable concentration (AUClast), area under concentration-time curve from dosing to infinity (AUCinf), Cmax, apparent total body clearance (CL/F), apparent volume of distribution (Vd/F), and terminal half-life (t1/2). The PD parameters included (but were not limited to) the following: EPO, reticulocytes, iron, ferritin, TIBC, and hepcidin.
PK population: included all randomized subjects who received study drug (vadadustat or epoetin alfa) and had enough drug concentrations to estimate AUC and Cmax. Analysis of this population was based on the dose amount taken at the date of PK sampling for the vadadustat group.
PD parameters for serum EPO concentration are presented by epoetin alfa stratification for vadadustat treatment groups in Table 7, Table 8a and Table 8b (baseline-unadjusted) and Table 9, Table 10a and Table 10b (baseline-adjusted).

[1] = Vada 150 mg, Week 11, High Epoetin Alfa Stratum >90 to <300 U/kg/week
[2] = Vada 150 mg, Week 11, Low Epoetin Alfa Stratum ≤90 U/kg/week
[3] = Vada 300 mg, Week 1 + 1, High Epoetin Alfa Stratum >90 to <300 U/kg/week
[4] = Vada 300 mg, Week 1 + 1, Low Epoetin Alfa Stratum ≤90 U/kg/week
[5] = Vada 300 mg, Week 1, High Epoetin Alfa Stratum >90 to <300 U/kg/week
[6] = Vada 300 mg, Week 1, Low Epoetin Alfa Stratum ≤90 U/kg/week
[7] = Vada 300 mg, Week 11, High Epoetin Alfa Stratum >90 to <300 U/kg/week
[8] = Vada 300 mg, Week 11, Low Epoetin Alfa Stratum ≤90 U/kg/week
[9] = Vada 300 mg, Week 13, High Epoetin Alfa Stratum >90 to <300 U/kg/week
[10] = Vada 450 mg, Week 1 + 1, High Epoetin Alfa Stratum >90 to <300 U/kg/week
[11] = Vada 450 mg, Week 1 + 1, Low Epoetin Alfa Stratum ≤90 U/kg/week
[12] = Vada 450 mg, Week 1, High Epoetin Alfa Stratum >90 to <300 U/kg/week
[13] = Vada 450 mg, Week 1, Low Epoetin Alfa Stratum ≤90 U/kg/week
[14] = Vada 450 mg, Week 11, High Epoetin Alfa Stratum >90 to <300 U/kg/week
[15] = Vada 450 mg, Week 11, Low Epoetin Alfa Stratum ≤90 U/kg/week
[16] = Vada 450 mg, Week 13, Low Epoetin Alfa Stratum ≤90 U/kg/week

O=C(O)CNC(=O)c1ncc(-c2cccc(Cl)c2)cc1O [Compound 1, {[5-(3-chlorophenyl)-3-hydroxypyridine-2-carbonyl]amino}acetic acid]
Baseline-Unadjusted serum EPO AUC0-5, Geometric Mean [1]: 143.0 µg·h/mL
Baseline-Unadjusted serum EPO Cmax, Geometric Mean [1]: 39.0 µg/mL
Baseline-Unadjusted serum EPO Tmax, Median [1]: 1.63 h
Baseline-Unadjusted serum EPO AUC0-5, Geometric Mean [2]: 37.6 µg·h/mL
Baseline-Unadjusted serum EPO Cmax, Geometric Mean [2]: 10.7 µg/mL
Baseline-Unadjusted serum EPO Tmax, Median [2]: 4.78 h
Baseline-Unadjusted serum EPO AUC0-5, Geometric Mean [3]: 74.9 µg·h/mL
Baseline-Unadjusted serum EPO Cmax, Geometric Mean [3]: 20.5 µg/mL
Baseline-Unadjusted serum EPO Tmax, Median [3]: 2.02 h
Baseline-Unadjusted serum EPO AUC0-5, Geometric Mean [4]: 65.7 µg·h/mL
Baseline-Unadjusted serum EPO Cmax, Geometric Mean [4]: 19.3 µg/mL
Baseline-Unadjusted serum EPO Tmax, Median [4]: 2.75 h
Baseline-Unadjusted serum EPO AUC0-5, Geometric Mean [5]: 56.0 µg·h/mL
Baseline-Unadjusted serum EPO Cmax, Geometric Mean [5]: 17.5 µg/mL
Baseline-Unadjusted serum EPO Tmax, Median [5]: 2.00 h
Baseline-Unadjusted serum EPO AUC0-5, Geometric Mean [6]: 58.5 µg·h/mL
Baseline-Unadjusted serum EPO Cmax, Geometric Mean [6]: 17.6 µg/mL
Baseline-Unadjusted serum EPO Tmax, Median [6]: 4.50 h
Baseline-Unadjusted serum EPO AUC0-5, Geometric Mean [7]: 84.4 µg·h/mL
Baseline-Unadjusted serum EPO Cmax, Geometric Mean [7]: 23.5 µg/mL
Baseline-Unadjusted serum EPO Tmax, Median [7]: 0.97 h
Baseline-Unadjusted serum EPO AUC0-5, Geometric Mean [8]: 65.2 µg·h/mL
Baseline-Unadjusted serum EPO Cmax, Geometric Mean [8]: 20.0 µg/mL
Baseline-Unadjusted serum EPO Tmax, Median [8]: 3.29 h
Baseline-Unadjusted serum EPO AUC0-5, Geometric Mean [9]: 125 µg·h/mL
Baseline-Unadjusted serum EPO Cmax, Geometric Mean [9]: 39.2 µg/mL
Baseline-Unadjusted serum EPO Tmax, Median [9]: 0 h
Baseline-Unadjusted serum EPO AUC0-5, Geometric Mean [10]: 61.6 µg·h/mL
Baseline-Unadjusted serum EPO Cmax, Geometric Mean [10]: 18.1 µg/mL
Baseline-Unadjusted serum EPO Tmax, Median [10]: 0 h
Baseline-Unadjusted serum EPO AUC0-5, Geometric Mean [11]: 80.2 µg·h/mL
Baseline-Unadjusted serum EPO Cmax, Geometric Mean [11]: 23.9 µg/mL
Baseline-Unadjusted serum EPO Tmax, Median [11]: 4.51 h
Baseline-Unadjusted serum EPO AUC0-5, Geometric Mean [12]: 79.9 µg·h/mL
Baseline-Unadjusted serum EPO Cmax, Geometric Mean [12]: 23.4 µg/mL
Baseline-Unadjusted serum EPO Tmax, Median [12]: 4.53 h
Baseline-Unadjusted serum EPO AUC0-5, Geometric Mean [13]: 76.4 µg·h/mL
Baseline-Unadjusted serum EPO Cmax, Geometric Mean [13]: 25.5 µg/mL
Baseline-Unadjusted serum EPO Tmax, Median [13]: 4.50 h
Baseline-Unadjusted serum EPO AUC0-5, Geometric Mean [14]: 97.5 µg·h/mL
Baseline-Unadjusted serum EPO Cmax, Geometric Mean [14]: 24.9 µg/mL
Baseline-Unadjusted serum EPO Tmax, Median [14]: 0.88 h
Baseline-Unadjusted serum EPO AUC0-5, Geometric Mean [15]: 65.1 µg·h/mL
Baseline-Unadjusted serum EPO Cmax, Geometric Mean [15]: 17.7 µg/mL
Baseline-Unadjusted serum EPO Tmax, Median [15]: 2.08 h
Baseline-Unadjusted serum EPO AUC0-5, Geometric Mean [16]: 88.4 µg·h/mL
Baseline-Unadjusted serum EPO Cmax, Geometric Mean [16]: 28.8 µg/mL
Baseline-Unadjusted serum EPO Tmax, Median [16]: 3.94 h
